Drawing on PubChem BioAssay (NCI), this text covers TGI for 10 molecules.

Test systems include EKVX NSCLC; HCT-116 colon; MOLT-4 leukemia; SK-MEL-2 melanoma; NCI-H460 lung; NCI-H23 lung; BT-549 breast; A498 renal; SNB-19 CNS; DU-145 prostate; 786-0 renal; IGROV1 ovarian; U251 CNS.
Common to all, as to assay: NCI anticancer screen, dose series, 48 h

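Compound exposure: 48 hours, 5 concentrations, 96-well plates. TGI is the concentration that stops growth completely.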 Where only a bound is given, the exact number is not on record here.

Turning to `c1ccc2c(c1)nc1n2CNC1`, the TGI in the experiment with EKVX NSCLC, in the experiment on HCT-116 colon, in the experiment on MOLT-4 leukemia, in the experiment with SK-MEL-2 melanoma, in the experiment on NCI-H460 lung and in the experiment with NCI-H23 lung was greater than 100 µM each time. For the same molecule, the TGI in the experiment with BT-549 breast, in the experiment with A498 renal, in the experiment on SNB-19 CNS, with DU-145 prostate, in the experiment with 786-0 renal and in the experiment on IGROV1 ovarian was greater than 100 µM each time. The same molecule yielded a TGI with U251 CNS greater than 100 µM.
Turning to `COc1cc2c(cc1OC)CCc1cc(OC)c(OC)cc1CC2`, the TGI in the experiment on EKVX NSCLC, with HCT-116 colon, in the experiment with MOLT-4 leukemia, with SK-MEL-2 melanoma, in the experiment with NCI-H460 lung and in the experiment on NCI-H23 lung was greater than 100 µM throughout. Moreover, the TGI with BT-549 breast, in the experiment with A498 renal, in the experiment with SNB-19 CNS, in the experiment with DU-145 prostate, in the experiment on 786-0 renal and in the experiment with IGROV1 ovarian was greater than 100 µM each time. Besides, the TGI in the experiment on U251 CNS is greater than 100 µM.
In the case of `O=[N+]([O-])c1cccc2nc3ccccc3c(NCCC[N+]3([O-])CCOCC3)c12`, the TGI with EKVX NSCLC was 2.01 µM; with HCT-116 colon, 0.533 µM; in the experiment on MOLT-4 leukemia, greater than 100 µM; with SK-MEL-2 melanoma, 0.375 µM; with NCI-H460 lung, 0.462 µM; with NCI-H23 lung it was 0.316 µM. The TGI amounted to 1.4 µM in the experiment with BT-549 breast; 0.422 µM in the experiment with A498 renal; 2.8 µM in the experiment with SNB-19 CNS; 0.868 µM in the experiment on DU-145 prostate; 0.729 µM in the experiment with 786-0 renal; 0.608 µM in the experiment with IGROV1 ovarian. Besides, the TGI in the experiment with U251 CNS came to 0.964 µM.
Turning to `CN1C2CCC1CC(CCNC(c1ccccc1)c1ccccc1)C2` (stereo not given), the TGI in the experiment with EKVX NSCLC is greater than 100 µM; in the experiment with HCT-116 colon, greater than 100 µM; in the experiment with MOLT-4 leukemia, greater than 100 µM; in the experiment with SK-MEL-2 melanoma, 31.4 µM; with NCI-H460 lung it was greater than 100 µM; in the experiment on NCI-H23 lung, greater than 100 µM. Besides, the TGI with BT-549 breast was greater than 100 µM; with A498 renal it was 60.5 µM; in the experiment on SNB-19 CNS it was greater than 100 µM; in the experiment on DU-145 prostate it was greater than 100 µM; with 786-0 renal, 41.4 µM; in the experiment on IGROV1 ovarian it was greater than 100 µM. Besides, the TGI in the experiment on U251 CNS is greater than 100 µM.
On to `O=c1[nH]nc(Cc2ccccc2)[nH]1`, for which the TGI with EKVX NSCLC, in the experiment on HCT-116 colon, with MOLT-4 leukemia, in the experiment on SK-MEL-2 melanoma, in the experiment on NCI-H460 lung and in the experiment on NCI-H23 lung was greater than 100 µM throughout. The TGI in the experiment on BT-549 breast, in the experiment with A498 renal, with SNB-19 CNS, in the experiment on DU-145 prostate, with 786-0 renal and in the experiment on IGROV1 ovarian was greater than 100 µM each time. Moreover, the TGI with U251 CNS was greater than 100 µM.
Regarding `COc1cc(OC)c2c(=O)c(OC)c(-c3ccc4c(c3)OCO4)oc2c1`, the TGI was greater than 100 µM in the experiment with EKVX NSCLC; greater than 100 µM in the experiment with HCT-116 colon; greater than 100 µM with MOLT-4 leukemia; 42.5 µM with SK-MEL-2 melanoma; greater than 100 µM in the experiment with NCI-H460 lung; 64 µM with NCI-H23 lung. Moreover, the TGI was greater than 100 µM with BT-549 breast; 57.1 µM with A498 renal; 62.7 µM with SNB-19 CNS; greater than 100 µM in the experiment with DU-145 prostate; 79.3 µM in the experiment with 786-0 renal; greater than 100 µM in the experiment with IGROV1 ovarian. This molecule registered a TGI in the experiment with U251 CNS of 30.3 µM.
With `COc1ccccc1N1CCN(CCCN2/C(=C(\O)c3ccccc3)C(=O)c3c(C)cc(C)nc3S2(=O)=O)CC1`, the TGI in the experiment on EKVX NSCLC, in the experiment on HCT-116 colon, with MOLT-4 leukemia, in the experiment on SK-MEL-2 melanoma, in the experiment with NCI-H460 lung and with NCI-H23 lung was greater than 100 µM each time. Further, the TGI in the experiment on BT-549 breast, with A498 renal, in the experiment with SNB-19 CNS, with DU-145 prostate, in the experiment on 786-0 renal and in the experiment on IGROV1 ovarian was greater than 100 µM in each case. The same molecule came in with a TGI in the experiment on U251 CNS greater than 100 µM.
For `COC(=O)CCc1cc(O)c2c(c1)C(C(=O)OC)C(c1ccc(O)c(O)c1)O2` (stereo not given), the TGI with EKVX NSCLC is greater than 100 µM; in the experiment with HCT-116 colon, greater than 100 µM; in the experiment with MOLT-4 leukemia, greater than 88.8 µM; with SK-MEL-2 melanoma, greater than 100 µM; with NCI-H460 lung it was greater than 62.8 µM; in the experiment with NCI-H23 lung, greater than 100 µM. Moreover, the TGI is greater than 100 µM in the experiment on BT-549 breast; greater than 84.5 µM in the experiment on A498 renal; greater than 100 µM in the experiment with SNB-19 CNS; greater than 83 µM in the experiment on DU-145 prostate; greater than 100 µM in the experiment on 786-0 renal; greater than 92.5 µM with IGROV1 ovarian. The molecule further displayed a TGI with U251 CNS greater than 95 µM.
Consider `Cc1ccc(NC(=O)c2cccc(OP(=O)(O)Nc3ccc(C)cc3)c2)cc1`, for which the TGI in the experiment with EKVX NSCLC, with HCT-116 colon, in the experiment on MOLT-4 leukemia, in the experiment on SK-MEL-2 melanoma, with NCI-H460 lung and with NCI-H23 lung was greater than 100 µM in each case. Besides, the TGI with BT-549 breast, with A498 renal, with SNB-19 CNS, with DU-145 prostate, in the experiment on 786-0 renal and in the experiment on IGROV1 ovarian was greater than 100 µM each time. In the experiment with U251 CNS, this molecule came in with a TGI greater than 100 µM.
As to `CC12CCC([C@H](C(O)C3CCCCC3)C1=O)C2(C)C` (stereo not given in full), the TGI with EKVX NSCLC, in the experiment with HCT-116 colon, in the experiment with MOLT-4 leukemia, in the experiment on SK-MEL-2 melanoma, with NCI-H460 lung and in the experiment on NCI-H23 lung was greater than 100 µM in each case. Also, the TGI in the experiment on BT-549 breast, in the experiment on A498 renal, in the experiment on SNB-19 CNS, in the experiment with DU-145 prostate, in the experiment on 786-0 renal and in the experiment on IGROV1 ovarian was greater than 100 µM in each case. The molecule further showed a TGI in the experiment on U251 CNS greater than 100 µM.
